Earlier results, collected in patent publication US20230240985A1, “STABLE PHARMACEUTICAL COMPOSITION OF TOPIRAMATE” (ALKEM LABORATORIES LIMITED, priority 2022, published 2023).

CC1(C)O[C@@H]2[C@@H](CO[C@@]3(COS(N)(=O)=O)OC(C)(C)O[C@@H]23)O1 [Topiramate, 2,3:4,5-Di-O-isopropylidine-β-D-fructopyranose sulfamate]
solubility in organic solvents (acetone, chloroform, dimethylsulfoxide, and ethanol): freely soluble
solubility in alkaline solutions (alkaline solutions containing sodium hydroxide or sodium phosphate, pH of 9 to 10): most soluble
stability in aqueous solution (aqueous solution): not stable
pH of saturated solution (saturated solution): 6.3
